For one assay, the system named is RBC urea transport.
Experiment: not given
The note with it: 23° C.; cited from earlier work.
As to `CNC(N)=O` [N-methylurea], the apparent affinity result is “approximately 100 mM”.

`NC(N)=O` [urea]: the apparent affinity result is reported as “approximately 200 mM”.

Another assay concerns the target T1, UT-B (Homo sapiens, UniProt Q13336).
T1 sequence (Q13336 1-389): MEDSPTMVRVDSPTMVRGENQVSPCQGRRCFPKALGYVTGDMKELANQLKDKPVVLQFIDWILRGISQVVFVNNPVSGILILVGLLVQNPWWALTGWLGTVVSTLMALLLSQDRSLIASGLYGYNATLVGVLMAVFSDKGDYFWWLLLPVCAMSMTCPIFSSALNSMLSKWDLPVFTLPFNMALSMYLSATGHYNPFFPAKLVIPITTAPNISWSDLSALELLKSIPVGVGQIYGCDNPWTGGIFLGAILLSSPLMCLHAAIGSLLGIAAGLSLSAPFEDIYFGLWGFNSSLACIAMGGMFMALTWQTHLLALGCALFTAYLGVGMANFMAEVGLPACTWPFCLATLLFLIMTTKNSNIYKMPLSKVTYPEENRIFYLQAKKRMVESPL
Nature of the assay: RBC lysis assay (human RBCs, acetamide-loaded).
Settings: not given
For the compound `NC(=O)CSc1oc(-c2ccccc2)nc1S(=O)(=O)c1ccc(Cl)cc1` [ureainh-102, 2-(4-(4-chlorophenylsulfonyl)-2-phenyloxazol-5-ylthio)acetamide], the concentration giving a half-maximal response (EC50) stood at 40 nM. With `Cc1ccc(S(=O)(=O)c2nc(-c3ccccc3)oc2SCC(N)=O)cc1` [ureainh-103, 2-(2-phenyl-4-tosyloxazol-5-ylthio)acetamide], a half-maximal effect (EC50) was put at 100 nM. Take `NC(=O)CSc1oc(-c2ccccc2)nc1S(=O)(=O)c1ccccc1` [ureainh-104, 2-(2-phenyl-4-(phenylsulfonyl)oxazol-5-ylthio)acetamide]: the EC50 was 1000 nM. Consider `Cc1ccc(S(=O)(=O)c2nc(-c3ccc(F)cc3)oc2SCC(N)=O)cc1` [ureainh-105, 2-(2-(4-fluorophenyl)-4-tosyloxazol-5-ylthio)acetamide], for which a half-maximal response (EC50) required 100 nM. `NC(=O)CSc1oc(-c2ccc(F)cc2)nc1S(=O)(=O)c1ccc(Cl)cc1` [ureainh-106, 2-(4-(4-chlorophenylsulfonyl)-2-(4-fluorophenyl)oxazol-5-ylthio)acetamide] registered an EC50 of 200 nM. The same measure, in the same setting: in the case of `NC(=O)CSc1oc(-c2ccc(F)cc2)nc1S(=O)(=O)c1ccc(F)cc1` [ureainh-107, 2-(2-(4-fluorophenyl)-4-(4-fluorophenylsulfonyl)oxazol-5-ylthio)acetamide] it was 6000 nM; in that of `NC(=O)CSc1oc(-c2ccc(F)cc2)nc1S(=O)(=O)c1ccccc1` [ureainh-108, 2-(2-(4-fluorophenyl)-4-(phenylsulfonyl)oxazol-5-ylthio)acetamide], 15000 nM. In turn, `Cc1ccc(-c2nc(S(=O)(=O)c3ccc(Br)cc3)c(SCC(N)=O)o2)cc1` [ureainh-109, 2-(4-(4-bromophenylsulfonyl)-2-p-tolyloxazol-5-ylthio)acetamide] yielded an EC50 of 200 nM. For the compound `Cc1ccc(-c2nc(S(=O)(=O)c3ccc(C)cc3)c(SCC(N)=O)o2)cc1` [ureainh-110, 2-(2-p-tolyl-4-tosyloxazol-5-ylthio)acetamide], the EC50 amounted to 1000 nM. On to `Cc1ccc(-c2nc(S(=O)(=O)c3ccc(Cl)cc3)c(SCC(N)=O)o2)cc1` [ureainh-111, 2-(4-(4-chlorophenylsulfonyl)-2-p-tolyloxazol-5-ylthio)acetamide], for which it took 1000 nM to reach a half-maximal effect (EC50).

The compound `Cc1ccc(-c2nc(S(=O)(=O)c3ccccc3)c(SCC(N)=O)o2)cc1` [ureainh-112, 2-(4-(phenylsulfonyl)-2-p-tolyloxazol-5-ylthio)acetamide] showed a 50% effective concentration (EC50) of 15000 nM. `NC(=O)CSc1oc(-c2cccs2)nc1S(=O)(=O)c1ccc(Cl)cc1` [ureainh-113, 2-(4-(4-chlorophenylsulfonyl)-2-(thiophen-2-yl)oxazol-5-ylthio)acetamide] had a concentration for a half-maximal effect (EC50) of 20 nM. For the compound `Cc1ccc(S(=O)(=O)c2nc(-c3cccs3)oc2SCC(N)=O)cc1` [ureainh-114, 2-(2-(thiophen-2-yl)-4-tosyloxazol-5-ylthio)acetamide], a half-maximal effect (EC50) was put at 500 nM. `NC(=O)CSc1oc(-c2cccs2)nc1S(=O)(=O)c1ccc(F)cc1` [ureainh-115, 2-(4-(4-fluorophenylsulfonyl)-2-(thiophen-2-yl)oxazol-5-ylthio)acetamide] returned a concentration giving a half-maximal response (EC50) of 600 nM.

The compound `NC(=O)CSc1oc(-c2cccs2)nc1S(=O)(=O)c1ccccc1` [ureainh-116, 2-(4-(phenylsulfonyl)-2-(thiophen-2-yl)oxazol-5-ylthio)acetamide] yielded a concentration for a half-maximal effect (EC50) of 1000 nM. Compound `NC(=O)CSc1oc(-c2ccco2)nc1S(=O)(=O)c1ccc(Cl)cc1` [ureainh-117, 2-(4-(4-chlorophenylsulfonyl)-2-(furan-2-yl)oxazol-5-ylthio)acetamide] yielded a half-maximal effective concentration (EC50) of 100 nM. On the same count and under the same terms, as for `NC(=O)CSc1oc(-c2ccco2)nc1S(=O)(=O)c1ccc(Br)cc1` [ureainh-118, 2-(4-(4-bromophenylsulfonyl)-2-(furan-2-yl)oxazol-5-ylthio)acetamide], the figure is 200 nM; as for `Cc1ccc(S(=O)(=O)c2nc(-c3ccco3)oc2SCC(N)=O)cc1` [ureainh-119, 2-(2-(furan-2-yl)-4-tosyloxazol-5-ylthio)acetamide], 1000 nM.

`O=S(=O)(c1ccc(Cl)cc1)c1nc(-c2ccccc2F)oc1NCc1ccccc1` [ureainh-120, N-benzyl-4-(4-chlorophenylsulfonyl)-2-(2-fluorophenyl)oxazol-5-amine] registered an EC50 of 1000 nM. `O=C(CSc1oc(-c2ccccc2)nc1S(=O)(=O)c1ccc(Br)cc1)NCc1ccco1` [ureainh-121, 2-(4-(4-bromophenylsulfonyl)-2-phenyloxazol-5-ylthio)-N-(furan-2-ylmethyl)acetamide] yielded an EC50 of 4000 nM. In turn, `O=C(CSc1oc(-c2ccccc2)nc1S(=O)(=O)c1ccc(Cl)cc1)NCc1ccco1` [ureainh-122, 2-(4-(4-chlorophenylsulfonyl)-2-phenyloxazol-5-ylthio)-N-(furan-2-ylmethyl)acetamide] showed a half-maximal effective concentration (EC50) of 15000 nM.

Compound `CN(C)c1oc(-c2ccccc2Cl)nc1S(=O)(=O)c1ccccc1` [ureainh-123, 2-(2-chlorophenyl)-N,N-dimethyl-4-(phenylsulfonyl)oxazol-5-amine] had an EC50 of 5000 nM. As to `O=S(=O)(c1ccccc1)c1nc(-c2ccccc2F)oc1N1CCOCC1` [ureainh-124, 4-(2-(2-fluorophenyl)-4-(phenylsulfonyl)oxazol-5-yl)morpholine], the EC50 turned out to be 7000 nM. `Cc1ccc(S(=O)(=O)c2nc(-c3ccccc3Cl)oc2N2CCOCC2)cc1` [ureainh-125, 4-(2-(2-chlorophenyl)-4-tosyloxazol-5-yl)morpholine] showed an EC50 of 11000 nM.

Compound `COc1ccccc1-c1nc(S(=O)(=O)c2ccccc2)c(N2CCCCCC2)o1` [ureainh-126, 5-(azepan-1-yl)-2-(2-methoxyphenyl)-4-(phenylsulfonyl)oxazole] gave a half-maximal effective concentration (EC50) of 10000 nM.

Consider `Cc1ccc(-c2nc(S(=O)(=O)c3ccccc3)c(N3CCCCCC3)o2)cc1` [ureainh-127, 5-(azepan-1-yl)-4-(phenylsulfonyl)-2-p-tolyloxazole], for which the response was half-maximal at 10000 nM (EC50). The compound `O=S(=O)(c1ccccc1)c1nc(-c2ccc(F)cc2)oc1N1CCCCCC1` [ureainh-128, 5-(azepan-1-yl)-2-(4-fluorophenyl)-4-(phenylsulfonyl)oxazole] showed an EC50 of 10000 nM. As to `CSc1oc(-c2ccco2)nc1S(=O)(=O)c1ccc(Cl)cc1` [ureainh-129, 4-(4-chlorophenylsulfonyl)-2-(furan-2-yl)-5-(methylthio)oxazole], the EC50 was 20000 nM.

The compound `CSc1[nH]c(-c2ccc(C)cc2)nc1S(=O)(=O)c1ccccc1` [ureainh-130, 5-(methylthio)-4-(phenylsulfonyl)-2-p-tolyl-1H-imidazole] came in with a concentration giving a half-maximal response (EC50) of 2000 nM. In the case of `Cc1ccc(S(=O)(=O)c2nc(-c3ccccc3)[nH]c2S)cc1` [ureainh-131, 2-phenyl-4-tosyl-1H-imidazole-5-thiol], a half-maximal response (EC50) required 6000 nM.

`O=C(Sc1[nH]c(-c2ccccc2)nc1S(=O)(=O)c1ccccc1)c1ccccc1` [ureainh-132, S-2-phenyl-4-(phenylsulfonyl)-1H-imidazol-5-yl benzothioate] registered a 50% effective concentration (EC50) of 7000 nM.

A word on the EC50: it is the concentration that produces a half-maximal response. Read a low EC50 as higher potency in that assay.

The values are drawn from patent US8394788B2, “Phenylsulfoxyoxazole compound inhibitors of urea transporters” (The Regents of the University of California, priority 2006, dated 2013).
